# Results as given in article PMC9144902, “Metal(II) Complexes of the Fluoroquinolone Fleroxacin: Synthesis, Characterization and Biological Profile” (Pharmaceutics, 2022).
# What was measured:
# [1] = molecular target: T1, bovine serum albumin (BSA) (Bos taurus, UniProt P02769); test: Albumin binding by tryptophan fluorescence emission quenching; settings: for K(BSA), BSA-binding constant / kq(BSA), BSA-quenching constant: BSA 3 μM; for K(BSA), BSA-binding constant: buffer pH 7.0, Scatchard equation; for kq(BSA), BSA-quenching constant: buffer pH 7.0, λexc 295 nm, Stern–Volmer, τ0 = 10^–8 s; for BSA fluorescence, % of the initial fluorescence intensity (I/Io): λem,max = 342 nm, final value of titration (Figure S11)
# T1 construct: purchased
# Procedure, shortened: (§1)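 Compound binding to serum albumin monitored by quenching of albumin tryptophan fluorescence emission. Quenching constants (kq) derived from Stern–Volmer equation; binding constants (K) from Scatchard equation.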
# [2] = molecular target: T2, human serum albumin (HSA) (Homo sapiens, UniProt P02768); test: as above; settings: for K(HSA), HSA-binding constant / kq(HSA), HSA-quenching constant: HSA 3 μM; for K(HSA), HSA-binding constant: buffer pH 7.0, Scatchard equation; for kq(HSA), HSA-quenching constant: buffer pH 7.0, λexc 295 nm, Stern–Volmer, τ0 = 10^–8 s; for HSA fluorescence, % of the initial fluorescence intensity (I/Io): λem,max = 351 nm, final value of titration (Figure S10)
# T2 construct: purchased
# Procedure, shortened: as §1
# [3] = test system: CT DNA; test: Study of the DNA-interaction by cyclic voltammetry; format: binding, calf; settings: for Epa(f), anodic potential / Epc(f), cathodic potential / Epa(b), anodic potential / Epc(b), cathodic potential: M(II)/M(I), 1:2 DMSO/buffer; for Epa(f), anodic potential / Epc(f), cathodic potential: absence of CT DNA; for Epa(b), anodic potential / Epc(b), cathodic potential: presence of CT DNA; for Kr/Kox, ratio of equilibrium DNA-binding constants (reduced/oxidized form): eq. S6
# Description: Cyclic voltammetry was used to study the interaction of the complexes with CT DNA. An intercalative interaction will induce a positive shift for the electrochemical potential(s) of metal oxidation/reduction, whereas, in the case of electrostatic interaction, a negative shift in the potential(s) may occur. The cyclic voltammograms of the complexes in a 1:2 DMSO:buffer solution (0.33 mM) were recorded in the absence and presence of the CT DNA solution (Figure S13). The predominant electrochemical feature for all complexes is a positive shift in the potential in the presence of CT DNA (ΔEpc/a = (–30)–(+127) mV). Consequently, the intercalative nature of the interaction of the complexes with DNA can be inferred from the presented data.
# In order to evaluate further the redox behavior of the complexes, the corresponding equilibrium constants were calculated by determining the ratio Kr/Kox in accordance to Equation (S6), where Kox and Kr are the DNA-binding constants for the oxidized and reduced form, respectively, of the metal ions. For all complexes, the Kr/Kox ratio is close to or above 1 (Table 7), showing the selective binding of DNA to the […] form of the complexes. […]
# S3.3 Study of the DNA –interaction by cyclic vol ta mmetry
# Cyclic voltammetr y can be also used in order to calculate the corresponding equilibrium constant for the redox process. The ratio of the DNA–binding constants for the reduced (K r) and oxidized forms (Kox) of t he complex es (Kr/Kox) w as calculat ed according t o eq. S6:
# Δ = = 0.059 × lo gEE E K oxoo o (eq. S6) […]
# where Eo and Eo are the formal potentials of M(II)/M(I) redox couple in the fully bound and […]
# free complexes, respectivel y. Kox and Kr are the binding constants for the binding of the oxidized and reduced species to DNA, respectivel y [S8] . […]
# [4] = test system: EB–DNA adduct (CT DNA); test: Competitive study with EB (EB–DNA fluorescence quenching); format: binding, calf; settings: for Ksv, Stern–Volmer constant: EB–DNA adduct; for ΔI/Io, percentage of EB–DNA fluorescence quenching: [EB] = 20 μM, [DNA] = 26 μM, λexc 540 nm, λem 592 nm; for EB–DNA relative fluorescence emission intensity, % of the initial (I/Io): λemission = 592 nm, final value (up to), Figure S14; for kq, EB–DNA quenching constant: τo = 23 ns
# T1 sequence (P02769 25-607): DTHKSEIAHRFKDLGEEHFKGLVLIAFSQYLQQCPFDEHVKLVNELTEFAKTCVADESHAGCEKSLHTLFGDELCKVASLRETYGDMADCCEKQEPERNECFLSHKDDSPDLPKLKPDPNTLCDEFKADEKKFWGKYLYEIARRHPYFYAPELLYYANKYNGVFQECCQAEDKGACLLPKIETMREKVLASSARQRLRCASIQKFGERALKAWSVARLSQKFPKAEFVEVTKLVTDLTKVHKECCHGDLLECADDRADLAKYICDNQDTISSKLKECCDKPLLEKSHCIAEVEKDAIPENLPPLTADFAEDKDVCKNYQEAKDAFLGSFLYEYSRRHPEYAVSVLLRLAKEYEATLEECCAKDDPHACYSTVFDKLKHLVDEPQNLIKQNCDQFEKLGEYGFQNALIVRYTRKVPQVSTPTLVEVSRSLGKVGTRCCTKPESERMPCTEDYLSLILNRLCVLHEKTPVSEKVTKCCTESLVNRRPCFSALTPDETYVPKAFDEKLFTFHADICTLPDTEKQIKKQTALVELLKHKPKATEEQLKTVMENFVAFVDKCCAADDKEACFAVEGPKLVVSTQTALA
# T2 sequence (P02768 25-609): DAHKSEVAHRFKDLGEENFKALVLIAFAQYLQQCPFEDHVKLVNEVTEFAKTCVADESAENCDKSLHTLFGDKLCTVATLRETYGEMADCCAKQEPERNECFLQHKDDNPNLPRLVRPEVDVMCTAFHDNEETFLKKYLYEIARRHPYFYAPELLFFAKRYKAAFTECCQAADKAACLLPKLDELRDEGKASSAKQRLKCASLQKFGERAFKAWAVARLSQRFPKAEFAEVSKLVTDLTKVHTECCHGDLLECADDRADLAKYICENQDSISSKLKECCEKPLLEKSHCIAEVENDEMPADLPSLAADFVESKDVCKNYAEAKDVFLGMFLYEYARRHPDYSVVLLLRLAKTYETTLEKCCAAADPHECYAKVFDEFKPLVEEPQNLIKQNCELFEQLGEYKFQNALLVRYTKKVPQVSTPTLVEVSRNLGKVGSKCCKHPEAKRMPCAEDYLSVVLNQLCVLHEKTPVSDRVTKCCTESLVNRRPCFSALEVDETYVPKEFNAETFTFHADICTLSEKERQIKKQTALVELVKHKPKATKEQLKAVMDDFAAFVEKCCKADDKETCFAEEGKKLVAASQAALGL
Structure (SMILES),"K(BSA), BSA-binding constant [1]","kq(BSA), BSA-quenching constant [1]","BSA fluorescence, % of the initial fluorescence intensity (I/Io) [1] [%]","K(HSA), HSA-binding constant [2]","kq(HSA), HSA-quenching constant [2]","HSA fluorescence, % of the initial fluorescence intensity (I/Io) [2] [%]","Epa(f), anodic potential [3] [mV]","Epc(f), cathodic potential [3] [mV]","Epa(b), anodic potential [3] [mV]","Epc(b), cathodic potential [3] [mV]","Kr/Kox, ratio of equilibrium DNA-binding constants (reduced/oxidized form) [3]","Ksv, Stern–Volmer constant [4]","ΔI/Io, percentage of EB–DNA fluorescence quenching [4] [%]","EB–DNA relative fluorescence emission intensity, % of the initial (I/Io) [4] [%]","kq, EB–DNA quenching constant [4]"
"CN1CCN(c2c(F)cc3c(=O)c(C(=O)[O-])cn(CCF)c3c2F)CC1.[Cl-].[Cu+2].c1cnc2c(c1)ccc1cccnc12 [complex 8, [Cu(flrx)(phen)Cl]]",5.03(±0.22) × 10^4 M^−1,1.04(±0.03) × 10^13 M^−1s^−1,34.4,3.45(±0.14) × 10^4 M^−1,4.08(±0.13) × 10^12 M^−1s^−1,56.5,−483,−725,−406,−720,2.00,3.25(±0.08) × 10^5 M^–1,66.4,33.6,1.41(±0.03) × 10^13 M^−1s^−1
"CN1CCN(c2c(F)cc3c(=O)c(C(=O)[O-])cn(CCF)c3c2F)CC1.[Cl-].[Cu+2].c1ccc(Nc2ccccn2)nc1 [complex 7, [Cu(flrx)(bipyam)Cl]]",1.26(±0.05)×10^5 M^−1,1.56(±0.04) × 10^13 M^−1s^−1,26.6,1.31(±0.05) × 10^5 M^−1,5.57(±0.18) × 10^12 M^−1s^−1,49.3,−426,−729,−300,−710,3.41,3.44(±0.06) × 10^5 M^–1,62.7,37.3,1.50(±0.03) × 10^13 M^−1s^−1
"CN1CCN(c2c(F)cc3c(=O)c(C(=O)[O-])cn(CCF)c3c2F)CC1.CN1CCN(c2c(F)cc3c(=O)c(C(=O)[O-])cn(CCF)c3c2F)CC1.CO.CO.[Ni+2] [complex 5, [Ni(flrx)2(MeOH)2]]",1.75(±0.07) × 10^5 M^−1,2.37(±0.13) × 10^13 M^−1s^−1,19.2,5.76(±0.28) × 10^4 M^−1,1.09(±0.03) × 10^13 M^−1s^−1,34.1,−495,−706,−501,−701,0.99,2.33(±0.08) × 10^5 M^–1,56.9,43.1,1.01(±0.03) × 10^13 M^−1s^−1
"CN1CCN(c2c(F)cc3c(=O)c(C(=O)[O-])cn(CCF)c3c2F)CC1.CN1CCN(c2c(F)cc3c(=O)c(C(=O)[O-])cn(CCF)c3c2F)CC1.CO.CO.[Co+2] [complex 4, [Co(flrx)2(MeOH)2]]",1.02(±0.05) × 10^5 M^−1,1.34(±0.03) × 10^13 M^−1s^−1,26.3,7.68(±0.33) × 10^4 M^−1,6.05(±0.13) × 10^12 M^−1s^−1,44.3,−483,−724,−455,−735,1.15,1.36(±0.03) × 10^5 M^–1,64.1,35.9,5.93(±0.14) × 10^12 M^−1s^−1
"CN1CCN(c2c(F)cc3c(=O)c(C(=O)[O-])cn(CCF)c3c2F)CC1.CN1CCN(c2c(F)cc3c(=O)c(C(=O)[O-])cn(CCF)c3c2F)CC1.[Ni+2].c1ccc(Nc2ccccn2)nc1 [complex 18, [Ni(flrx)2(bipyam)]]",4.77(±0.15) × 10^4 M^−1,1.56(±0.07) × 10^13 M^−1s^−1,25.2,7.13(±0.17) × 10^4 M^−1,6.94(±0.10) × 10^12 M^−1s^−1,44.5,−523,−695,−512,−689,1.15,3.02(±0.13) × 10^5 M^–1,59.3,,1.31(±0.05) × 10^13 M^−1s^−1
